Results as given in patent publication US20070167408A1, “NOVEL ALKYL PHOSPHOLIPID DERIVATIVES WITH REDUCED CYTOTOXICITY AND USES THEREOF” (ZENTARIS GmbH, priority 2005, published 2007).
Values after ≈ are worked out from the molar mass of the structure shown.

How the values were obtained:
Assay type in all cases: cell-based
Candida albicans TS3 = assay: Anti-fungal broth microdilution (MIC), fungus F; details: yeast protocol, more than 80% inhibition, 48 h
In short: (§1)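 Broth microdilution per NCCLS M27-A (yeasts) and M38-A (filamentous fungi), compounds tested from 64 down to 0.125 μg/ml against 10^6 CFU/ml inocula. For filamentous fungi, MIC read after 48 to 72 h at 35° C as the concentration giving more than 50% visible growth inhibition.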

[1] = tested on: Candida albicans ATCC 10231; assay: Anti-fungal broth microdilution (MIC), fungus D; details: yeast protocol, more than 80% inhibition, 48 h
In short: as §1

[2] = tested on: Candida parapsilosis ATCC 22019; assay: Anti-fungal broth microdilution (MIC), fungus G; details: yeast protocol, more than 80% inhibition, 48 h
In short: as §1

[3] = tested on: Aspergillus fumigatus ATCC 204305; assay: Anti-fungal broth microdilution (MIC), fungus A; details: filamentous protocol, more than 50% growth inhibition, 48 to 72 h
In short: as §1

[4] = tested on: Plasmodium falciparum (strain K1); assay: In vitro drug activity assay, protozoon C; details: strain K1, 3[H]-hypoxanthine method
Method: In vitro activity of selected compounds of the invention against different protozoa was assessed as follows.
Plasmodium falciparum strain K1 and strain 3D7 parasites were cultured according to Trager W and Jensen J B (Science 1976, 193: 673-675). In vitro drug susceptibility assays with the test compounds were carried out according to Korsinczky M et al. (Antimicrobial agents and chemotherapy 2000, 44(8): 2100-2108) and Fivelman Q L et al. (Antimicrobial agents and chemotherapy 2004, 48(11): 4097-4102) using a ^3[H]-hypoxanthine radioisotope method. ED50 values were calculated with Msxlfit (IDBS).
The following protozoa were assessed: • A) Trypanosoma cruzi (Tulahuan-LACZ amstigotes in PEM, Lorente S O et al., Antimicrobial agents and chemotherapy 2004, 48(8): 2937-2950; Buckner et al., Infection and Immunity 1999, 67(1): 403-409; Buckner et al., Antimicrobial Agents and Chemotherapy 1996, 40(11): 2592-2597) • B) Trypanosoma brucei rhodesiense (strain STIB900, Lorente S O et al., Antimicrobial agents and chemotherapy 2004, 48(8): 2937-2950; Habtemariam S, BMC Pharmacology 2003, 3:6) • C) Plasmodium falciparum (strain K1, Korsinczky M et al., Antimicrobial agents and chemotherapy 2000, 44(8): 2100-2108; Thaitong S and Beale G H, Trans. R. Soc. Trop. Med. Hyg. 1981, 75: 271-273; Trager W and Jensen J B, Science 1976, 193: 673-675) • D) Plasmodium faiciparum (strain 3D7, Mu et al., PLoS Biology 2005, 3(10): e335)

[5] = tested on: Candida albicans ATCC 90028; assay: Anti-fungal broth microdilution (MIC), fungus E; details: yeast protocol, more than 80% inhibition, 48 h
In short: as §1

[6] = tested on: Bacteroides fragilis DSM 2151 (ATCC 25285); assay: Anti-bacterial bouillon microdilution assay (MIC), bacterium E; details: anaerob, 24 h
In short: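 Broth microdilution MIC per DIN 58940-5/-7. Twofold compound dilutions in water spanned 256 to 0.125 μg/ml in the test concentration series, with inocula of about 1×10^6 organisms/ml in strain-appropriate media. Growth was read as turbidity at 595 nm before and after incubation, against growth and sterile controls.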

With `CCCCCCCCCCCCCCCCOP(=O)([O-])OCC[N+]1(C)CCCCC1` [Compound 2, Phosphoric acid hexadecyl ester 2-(1-methyl-piperidin-1-yl)-ethyl ester] as the compound, how does the “MIC, fungus F” value (Candida albicans TS3) read?
The value was 1.5 µg/mL (≈ 3.35 µM).

What about the “MIC, fungus D” value [1] of the same compound?
The value was 1 µg/mL (≈ 2.23 µM).

And the “MIC, fungus G” value [2]?
The value was 2 µg/mL (≈ 4.47 µM).

What about the “MIC, fungus A” value [3] of the same compound?
The value was 2 µg/mL (≈ 4.47 µM).

And the “ED50 (μg/mL), protozoon C” value [4]?
The value was 19.36 µg/mL (≈ 43.2 µM).

And the “MIC, fungus E” value [5]?
Its value is 1 µg/mL (≈ 2.23 µM).

Which MIC [6] does the source give for `CCCCCCCCCCCCCCCCOP(=O)([O-])OCC[N+](C)(C)C` [miltefosine, hexadecylphosphocholine, reference compound] here?
The MIC was greater than 256 µg/mL.
